BindingDB's records for doi:10.1073/pnas.0609757104 (University of Central Florida College of Medicine, 2007)

Target: T1, Signal transducer and activator of transcription 1-alpha/beta (Homo sapiens, UniProt P42224)
T1 sequence (P42224 whole entry): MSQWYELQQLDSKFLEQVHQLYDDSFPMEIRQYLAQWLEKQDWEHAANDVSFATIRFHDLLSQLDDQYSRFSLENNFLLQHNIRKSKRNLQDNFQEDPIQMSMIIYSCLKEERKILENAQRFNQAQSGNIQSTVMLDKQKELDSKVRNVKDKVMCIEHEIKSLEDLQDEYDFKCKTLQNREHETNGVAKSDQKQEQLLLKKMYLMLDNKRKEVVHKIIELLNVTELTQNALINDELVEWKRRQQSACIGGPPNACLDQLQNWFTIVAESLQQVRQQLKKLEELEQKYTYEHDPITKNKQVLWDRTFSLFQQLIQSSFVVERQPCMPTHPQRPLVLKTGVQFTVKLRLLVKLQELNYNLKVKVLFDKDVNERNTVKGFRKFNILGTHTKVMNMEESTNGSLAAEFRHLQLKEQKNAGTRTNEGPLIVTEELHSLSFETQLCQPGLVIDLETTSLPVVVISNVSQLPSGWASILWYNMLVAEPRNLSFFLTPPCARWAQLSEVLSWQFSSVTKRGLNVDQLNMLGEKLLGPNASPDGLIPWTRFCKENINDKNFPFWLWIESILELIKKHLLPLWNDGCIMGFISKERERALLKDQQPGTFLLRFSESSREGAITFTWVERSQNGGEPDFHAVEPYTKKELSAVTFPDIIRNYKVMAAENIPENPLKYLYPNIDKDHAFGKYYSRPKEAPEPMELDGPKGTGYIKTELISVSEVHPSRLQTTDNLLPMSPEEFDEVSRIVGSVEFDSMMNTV
Experiment: Electrophoretic Mobility Shift Assay (EMSA)
Details: pH 7.8; 22 °C
Experimental: STAT proteins were expressed in Sf9 cells from a baculovirus encoding the recombinant protein. A nuclear extract of the Sf9 cells was incubated with 32P-labeled high affinity c-fos sis inducible element (hSIE) either alone or in the presence of inhibitor. After incubation, samples were electrophoresed on polyacrylamide gels. The gels were dried, exposed to a phosphorimager screen and scanned. IC50 values were derived from plots of spot intensity versus phosphopeptide concentration. The affinity of peptides to the SH2 domain is measured by the intensity of the radioactivity of the Stat-DNA complex band in the electrophoresis gel.

- IC50: > 300 µM
Structure (SMILES): Cc1ccc(S(=O)(=O)OCC(=O)Nc2ccc(C(=O)O)c(O)c2)cc1 [2-hydroxy-4-(2-{[(4-methylbenzene)sulfonyl]oxy}acetamido)benzoic acid]
